# According to paper PMC5601738, “Facile total synthesis of lysicamine and the anticancer activities of the Ru^II, Rh^III, Mn^II and Zn^II complexes of lysicamine” (Oncotarget, 2017):
# Several values for one entry are separate records, joined by “and”; a condition that tells them apart may be missing. Equal values may be shown once.
# Columns and labels:
# [1] = tested on: cell cycle regulatory proteins in HepG2 cells; experiment: Western blot of cell cycle regulatory proteins; conditions: HepG2, 24 h
# Protocol: HepG2 cells were incubated with 2 and 3 at increasing concentrations for 24 h, and the expression of cell cycle regulatory proteins in the S phase was examined through Western blot analysis.
# T-24 = experiment: MTT assay, T-24 cells; type: cell-based, human; conditions: 48 h
# BEL-7404 = experiment: MTT assay, BEL-7404 cells; type: cell-based, human; conditions: 48 h
# NCI-H460 = experiment: MTT assay, NCI-H460 cells; type: cell-based, human; conditions: 48 h
# caspase-3 in HepG2 cells = experiment: Activated caspase-3 by flow cytometry; conditions: HepG2, at IC50, 24 h; control 0.0 %
# Protocol: (§1) After treated, the cells were collected, and suspended in h at 37 °C in 5% CO2 incubator. The cells were harvested
# (§2) with annexin V-FITC and PI for 1 h at room temperature cytometer equipped. The results were represented as the
# (§3) in the dark and immediately analyzed by flow cytometry. percent change on the activity comparing with the control.
# (§4) Caspase- 3, -8 and -9 activity determinations by our previously report [3].
# HepG2 cells [2] = experiment: ROS, intracellular Ca2+ and mitochondrial membrane potential (DCFH-DA, Fluo-3 AM, JC-1); conditions: HepG2, 24 h; 2 at 3.5, 7.0, […]; 3 at 7.0, 14.0, 28.0 μM
# Protocol: The changes in the ROS level, intracellular Ca^2+ and loss of ΔΨm in the HepG2 cells were detected by the DCFH-DA, Fluo-3 AM, and JC-1 fluorescent probes, respectively (see in Figure 5A). Green fluorescence represented higher ROS levels, more intracellular Ca^2+, and reduced ΔΨm.
# Measurement of oxygen species (ROS), Determination of cell cycle and apoptotic related
# intracellular Ca2+ and mitochondrial membrane proteins
# and then resuspended in 1mL of DCFH-DA (100 μM) onto a PVDF membrane.
# cytometry or fluorescence microscope.
# HepG2 cells [3] = experiment: Uptake of metal complexes in HepG2 cells (ICP-MS); type: cell-based, human; conditions: HepG2, 2 at 7.0 μM, 3 at […], 8 h
# ct-DNA = experiment: CD absorption spectrometry assay with ct-DNA; type: binding; conditions: ct-DNA 1×10^−4 M, [DNA]/[compound] 10:0.5 to 10:2.0
# HepG2 cells [4] = experiment: Apoptosis assay, Annexin V-FITC/PI flow cytometry; type: cell-based, human; conditions: HepG2, 28.0 μM, 24 h; control […]
# caspase-8 in HepG2 cells = experiment: Activated caspase-8 by flow cytometry; conditions: HepG2, at IC50, 24 h; control 2.1 %
# Protocol: as §1, §2, §3, §4
# HepG2 = experiment: MTT assay, HepG2 cells
# [5] = tested on: HL-7702 normal liver cell; experiment: MTT assay, HL-7702 normal liver cell; type: cell-based; conditions: 48 h, normal liver cell; for inhibitive ratio HL-7702: 20 μmol/L
# pBR322 plasmid DNA = experiment: Agarose gel electrophoresis assay with pBR322 plasmid DNA; type: biochemical; conditions: pBR322 0.5 μg/μL, TBE buffer pH=8.5, 10 to 100 μM
# Protocol: The DNA cleavage activity of 2, 3 and LY were tested by agarose gel electrophoresis assay using pBR322 plasmid DNA (0.5 μg/μL) in TBE buffer (pH=8.5). […] In contrast, under the same experimental conditions, when the concentration of 2 increased from 10 μM to 50 μM, the mobility of supercoiled DNA (form I) was reduced, but the relaxed form (form II) was not observed. When the concentration of 2 increased further to 70 μM, the form II DNA appeared. Almost all supercoiled DNA (form I) changed to relaxed DNA (form II) when the concentration of 2 reached 90 and 100 μM.
# RT-qPCR was performed. The threshold cycle (Ct) values approval no. SCXK 2014-0002 and SYXK 2014-0003), […]
# were housed at a sterile environment with conditions of […]
# than 3 days before used. Complexes and LYwere all […]
# is limited in 1% in final working solutions. KM mice. The large concentration of 2 in 10% (v/v) […]
# ct-DNA CD spectrum as control.
# The HepG2 xenograft mice were induced by
# 37 °C in the dark for 4 h.
# The percent weight loss or gain was calculated […]
# imaging system under a UV-Vis transilluminator.. Percent tumour growth inhibition after initiation of treatment with 2 and cisplatin were calculated by TGI= […]
# initial for control group).
# Animals were supplied by Guangxi Medical
# University Laboratory Animal Centre (Guangxi, China, […]
# HepG2 cells [6] = experiment: Cell cycle analysis by flow cytometry; type: cell-based, human
# [7] = tested on: apoptosis associated proteins in HepG2 cells; experiment: Western blot of apoptosis-related proteins; conditions: HepG2, 24 h, various concentrations
# caspase-9 in HepG2 cells = experiment: Activated caspase-9 by flow cytometry; conditions: HepG2, at IC50, 24 h; control […]
# Protocol: as §1, §2, §3, §4
# [8] = MTT, mean ± SD from five independent experiments
smiles,measurement,setting,value
"COc1cc2ccnc3c2c(c1OC)-c1ccccc1C3=O.COc1cc2ccnc3c2c(c1OC)-c1ccccc1C3=O.COc1cc2ccnc3c2c(c1OC)-c1ccccc1C3=O.ClC(Cl)Cl.ClC(Cl)Cl.ClC(Cl)Cl.[Mn+2].[O-][Cl+3]([O-])([O-])[O-].[O-][Cl+3]([O-])([O-])[O-] [Complex 3, [Mn(LY)3](ClO4)2·3CHCl3]",proliferating cell nuclear antigen (PCNA) level,[1],decreased
same,"expression of Cdk2, p-Cdc25A, p53, p21 and p27",[1]; increasing concentrations,increased
same,inhibitive ratio T-24,T-24; 20 μmol/L,45.42±1.66%
same,IC50,T-24; [8],15.4 ± 1.81 µM
same,inhibitive ratio BEL-7404,BEL-7404; 20 μmol/L,35.27±1.15%
same,IC50,BEL-7404; [8],36.2 ± 1.03 µM
same,inhibitive ratio NCI-H460,NCI-H460; 20 μmol/L,54.93±0.86% and 54.93%
same,IC50,NCI-H460; [8],12.9 ± 3.62 µM
same,proportion of activated caspase-3 cells,caspase-3 in HepG2 cells,18.8%
same,"ROS, intracellular Ca2+ and ΔΨm",HepG2 cells [2],"caused overproduction of ROS, rising intracellular Ca^2+, and loss of Δψm"
same,distribution of the metal (Rh or Mn) in mitochondrial vs nuclear fraction,HepG2 cells [3],higher in the mitochondrial fraction than in the nuclear fraction
same,change of CD spectrum of ct-DNA / binding,ct-DNA,significant hypochromism in both the negative and the positive bands
same,percentages of cells undergoing apoptosis and necrosis,HepG2 cells [4],35.8%
same,proportion of activated caspase-8 cells,caspase-8 in HepG2 cells,12.3%
same,inhibitive ratio Hep-G2,"HepG2; 20 μmol/L, 48 h",62.99±0.43% and 62.99%
same,fold increase of cytotoxicity (IC50) comparing with the free LY ligand,HepG2; HepG2 cells,1.6–3.2 fold
same,IC50,"HepG2; read-out: IC50 HepG2, MTT, 48 h, mean ± SD from five independent experiments",14.5 ± 0.69 µM
same,inhibitive ratio HL-7702,[5],32.9%
same,inhibitive ratio HL-7702,[5]; listed as 3,32.97±1.14%
same,IC50,[5]; [8],55.4 ± 3.65 µM
same,DNA cleavage activity on supercoiled pBR322 DNA,pBR322 plasmid DNA,cleavage of supercoiled DNA was still little
same,cell population in S phase,"HepG2 cells [6]; HepG2, 28.0 μM, 24 h, control 31.23%",48.70%
same,effect on cell cycle progression,"HepG2 cells [6]; HepG2, 24 h",significant cell cycle arrest at the S phase
same,"expression of Bax, Apaf-1 and cytochrome c",[7],increased
same,"expression of C-myc, Bcl-xl and Bcl-2",[7],decreased
same,proportion of activated caspase-9 cells,caspase-9 in HepG2 cells,17.0%
